Measured values: patent US8912128B2 (priority 2012, dated 2014)
“And” between values parts separate entries of the source, which are not always exact repeats. Equal entries are not always repeated.

Tests used:
[1] = biological target: whole cholera toxin (ctxAB5) (Vibrio cholerae serotype O1, UniProt P01556); assay type: binding
[2] = biological target: cholera toxin secreted from Vibrio cholerae culture (Vibrio cholerae serotype O1, UniProt P01556)
cholera toxin secreted from Vibrio cholerae culture, sequence (P01556 whole entry, looked up): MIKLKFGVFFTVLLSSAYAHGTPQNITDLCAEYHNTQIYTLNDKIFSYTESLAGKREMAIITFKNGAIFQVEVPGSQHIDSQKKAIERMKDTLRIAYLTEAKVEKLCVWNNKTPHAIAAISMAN

whole cholera toxin (ctxAB5), sequence (P01556 whole entry, looked up): as above

Substance | visual limit of detection (LOD) of cholera toxin [1] | fluorescence signal with Vibrio cholerae culture [2] | coefficient of determination of linear relation between fluorescence intensity and whole cholera toxin concentration [1] | limit of detection (LOD) of cholera toxin determined from the dose-response curve [1] | whole cholera toxin concentration at which fluorescence intensity was saturated [1] [µg/mL]
asialo GM1 tetrasaccharide | 1 µg/mL | – | – | – | –
GM2 tetrasaccharide | 0.75 µg/mL | high fluorescence intensity | – | – | –
GM1 pentasaccharide | 5 ng/mL and 57.5 pM | high fluorescence intensity | 0.9935 | 2 ng/mL and 23 pM | ≥ 1
